Test results published in PubChem BioAssay AID1552 (Sanford-Burnham Center for Chemical Genomics, 2009).
Calls of active or inactive are those of the source. The rule behind the calls is not given here.

biological target: Ubiquitin-conjugating enzyme E2 N (Homo sapiens) (UniProt P61088); assay: UBE2N binders by NMR, biophysical, purified protein (AID 1552); conditions: NMR binding to purified UBE2N
Sequence (P61088 whole entry, looked up): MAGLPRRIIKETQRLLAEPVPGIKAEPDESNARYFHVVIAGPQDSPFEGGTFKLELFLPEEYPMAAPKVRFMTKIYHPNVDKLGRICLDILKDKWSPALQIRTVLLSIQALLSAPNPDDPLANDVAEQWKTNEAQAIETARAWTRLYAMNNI

**Q.** How did the Kd turn out when `N#CCN1C(=O)c2ccccc2S1(=O)=O` was run?
**A.** The Kd was > 4 mM (inactive).

**Q.** With `O=c1cnnc(Nc2ccc(O)cc2)[nH]1` as the molecule, how does the Kd read?
**A.** The Kd was > 4 mM (inactive).

**Q.** `NC(=O)CN=Cc1c(O)[nH]c2ccccc12` was tested. Which Kd did it give?
**A.** The Kd was > 4 mM (inactive).

**Q.** Which Kd does the source give for `NS(=O)(=O)c1ccc(NC(=O)/C=C\C(=O)O)cc1` here?
**A.** Its Kd is > 4 mM (inactive).

**Q.** How did the Kd turn out when `Cc1nc2ccc(C(=O)N3CCSCC3)cc2s1` was run?
**A.** Its Kd is > 4 mM (inactive).

**Q.** For `Cc1cc(NC(=O)Cc2c(F)cccc2Cl)no1`, which Kd is on record?
**A.** Its Kd is > 4 mM (inactive).

**Q.** `Nc1ncnc(NCCO)c1[N+](=O)[O-]` was tested. Which Kd did it give?
**A.** The Kd was > 4 mM (inactive).

**Q.** With `CC1CCC2(OC1)OC1CC3C4CC[C@H]5C[C@@H](O)CC[C@]5(C)C4CC(=O)[C@]3(C)C1C2C` (some centres undefined) as the molecule, how does the Kd read?
**A.** The Kd was > 4 mM (inactive).

**Q.** `Cc1ccc(C)n1-c1ccc(C(=O)N2CCOCC2)cc1` was tested. Which Kd did it give?
**A.** The Kd was > 4 mM (inactive).

**Q.** How did the Kd turn out when `COc1ccc2c(c1)OCC(Cc1ccc(OC)c(O)c1)C2=O` (centres undefined) was run?
**A.** Its Kd is > 4 mM (inactive).

**Q.** Which Kd does the source give for `CC(C)=CC1C(C(=O)O)C1(C)C` (centres undefined) here?
**A.** The Kd was > 4 mM (inactive).

**Q.** With `Nc1ccc(-n2cccc2)cc1` as the molecule, how does the Kd read?
**A.** Its Kd is > 4 mM (inactive).

**Q.** For `Cn1cc(Cl)c(C(=O)Nc2ccncc2)n1`, which Kd is on record?
**A.** Its Kd is > 4 mM (inactive).

**Q.** Which Kd does the source give for `CC1=NNC(=O)C1CCc1ccncc1` (centres undefined) here?
**A.** The Kd was > 4 mM (inactive).

**Q.** How did the Kd turn out when `CC(=O)Nc1ccc(-c2cn3ccsc3n2)cc1` was run?
**A.** Its Kd is > 4 mM (inactive).

**Q.** How did the Kd turn out when `O=C(O)c1ccc(NCc2cccnc2)cc1` was run?
**A.** Its Kd is > 4 mM (inactive).

**Q.** Which Kd does the source give for `CN(C)c1ccc2c(=O)[nH][nH]c(=O)c2c1` here?
**A.** Its Kd is > 4 mM (inactive).

**Q.** With `C/C1=C\CCC(=O)C2CC(C)(C)C2CC1` (centres undefined) as the molecule, how does the Kd read?
**A.** Its Kd is > 4 mM (inactive).

**Q.** `COc1ccc2c(c1)c1n[nH]c(=S)nc1n2C` was tested. Which Kd did it give?
**A.** Its Kd is > 4 mM (inactive).

**Q.** How did the Kd turn out when `COc1cccc(NC(=O)c2cnn(C)c2Cl)c1` was run?
**A.** Its Kd is > 4 mM (inactive).

**Q.** `Cc1nn(C)c2sc(CO)cc12` was tested. Which Kd did it give?
**A.** The Kd was > 4 mM (inactive).

**Q.** Which Kd does the source give for `OC1(c2ccc(Cl)cc2)CCNCC1` here?
**A.** Its Kd is > 4 mM (inactive).

**Q.** With `Cc1nnc(NCCN2CCOCC2)[nH]c1=O` as the molecule, how does the Kd read?
**A.** The Kd was > 4 mM (inactive).

**Q.** With `O=C(Nc1cnccn1)c1cccs1` as the molecule, how does the Kd read?
**A.** Its Kd is > 4 mM (inactive).
